We go through four molecules from ChEMBL document CHEMBL1151316, “Pyrrolizidine alkaloids from Heliotropium megalanthum” (J Nat Prod, 1998).

Test [1] has as its system Leptinotarsa decemlineata. Nature of the test: Antifeedant activity in Leptinotarsa decemlineata assessed as reduction of feeding by choice test. Format: functional, organism-based.
The test system of test [2] is Leptinotarsa decemlineata. Nature of the test: Insecticidal activity against haemolymph dosed Leptinotarsa decemlineata assessed as increase in mortality after 2 days. In kind it is functional.
Test [3] deals with Leptinotarsa decemlineata. The test is described as follows: Antifeedant activity in Leptinotarsa decemlineata assessed as reduction of feeding by no-choice test. Format: functional, organism-based.
Test [4] relates to Spodoptera littoralis. Nature of the test: Antifeedant activity in Spodoptera littoralis L6 larvae assessed as reduction of feeding at 5 ug/cm2 by choice test. Format: functional. Also noted: scale not given: the % may be the effect or the level left.
The subject of test [5] is Spodoptera littoralis. The test is described as follows: Antifeedant activity in Spodoptera littoralis L6 larvae assessed as reduction of feeding at 100 ug/cm2 by choice test. In kind it is functional. Further details: scale not given: the % may be the effect or the level left.
The subject of test [6] is Leptinotarsa decemlineata. Nature of the test: Antifeedant activity in Leptinotarsa decemlineata assessed as reduction of feeding at 100 ug/cm2 by choice test. Format: functional. Further details: scale not given: the % may be the effect or the level left.
Test [7] concerns Spodoptera littoralis. Nature of the test: Antifeedant activity in Spodoptera littoralis L6 larvae assessed as reduction of feeding by choice test. Format: functional, organism-based.
For test [8], the system named is Spodoptera littoralis. The test is described as follows: Insecticidal activity against orally dosed Spodoptera littoralis L6 larvae assessed as relative consumption rate after 72 hrs. Format: functional.
Test [9] concerns Spodoptera littoralis. Nature of the test: Insecticidal activity against orally dosed Spodoptera littoralis L6 larvae assessed as relative growth rate after 72 hrs. In kind it is functional.
Test [10] relates to Leptinotarsa decemlineata. Nature of the test: Antifeedant activity in Leptinotarsa decemlineata assessed as reduction of feeding at 100 ug/cm2 by no-choice test. Format: functional. Further details: scale not given: the % may be the effect or the level left.

Turning to `CC(=O)O[C@H](C)[C@](O)(C(=O)OC[C@@H]1CCN2CCC[C@@H]12)C(C)C`, the EC50 in test [1] is 1.79 microg/cm2; in [3], 2.92 microg/cm2. In [2], the Activity amounted to 5%.

`CO[C@@H](C)[C@](O)(C(=O)OCC1=CCN2CC[C@H](O)[C@@H]12)C(C)(C)O` [EUROPINE]: the Activity in the test with Spodoptera littoralis [4] was determined as 67%.

As for `CC(C)[C@](O)(C(=O)OCC1=CCN2CC[C@@H](O)[C@@H]12)[C@@H](C)O` [LYCOPSAMINE], the Activity in the test with Spodoptera littoralis [5] was 61.08%; in test [6], 27.53%; in test [2] it was 12%; in the test on Spodoptera littoralis [8], 21.19 mg; in the test on Spodoptera littoralis [9] it was 3.32 mg; in test [10], 68.4%. Further, the values for the EC50 (in the test with Spodoptera littoralis [7]; in [3]) were 31.62 microg/cm2 and 25.97 microg/cm2, respectively.

Regarding `CC(C)[C@@](O)(C(=O)OC[C@H]1CCN2CC[C@@H](O)[C@@H]12)[C@H](C)O` [MEGALANTHONINE], the Activity in test [2] is reported as 10%.
